This is an account of results in patent US8703768B2, “Nitrogen containing heteroaryl compounds” (Hoffmann-La Roche Inc., priority 2010, dated 2014).

The target in the experiment is human PDE10A (Homo sapiens (Human), UniProt Q9Y233). Briefly: human PDE10A full length Scintillation Proximity Assay (SPA). The settings on record: 50 nM cGMP and 50 nM [3H]-cGMP, 20 minutes at room temperature; read-out: PDE10A inhibition IC50. It counts as biochemical. Put shortly: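 Radiometric SPA read-out: after 20 min at room temperature with [^3H]-cGMP/cGMP substrate, zinc sulphate (18 mM) bead stop reagent added and counts read after 1 h. Non-specific signal defined without enzyme; full-length protein used.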
Sequence of human PDE10A (Q9Y233 other isoform, or with tags, fused parts or gaps): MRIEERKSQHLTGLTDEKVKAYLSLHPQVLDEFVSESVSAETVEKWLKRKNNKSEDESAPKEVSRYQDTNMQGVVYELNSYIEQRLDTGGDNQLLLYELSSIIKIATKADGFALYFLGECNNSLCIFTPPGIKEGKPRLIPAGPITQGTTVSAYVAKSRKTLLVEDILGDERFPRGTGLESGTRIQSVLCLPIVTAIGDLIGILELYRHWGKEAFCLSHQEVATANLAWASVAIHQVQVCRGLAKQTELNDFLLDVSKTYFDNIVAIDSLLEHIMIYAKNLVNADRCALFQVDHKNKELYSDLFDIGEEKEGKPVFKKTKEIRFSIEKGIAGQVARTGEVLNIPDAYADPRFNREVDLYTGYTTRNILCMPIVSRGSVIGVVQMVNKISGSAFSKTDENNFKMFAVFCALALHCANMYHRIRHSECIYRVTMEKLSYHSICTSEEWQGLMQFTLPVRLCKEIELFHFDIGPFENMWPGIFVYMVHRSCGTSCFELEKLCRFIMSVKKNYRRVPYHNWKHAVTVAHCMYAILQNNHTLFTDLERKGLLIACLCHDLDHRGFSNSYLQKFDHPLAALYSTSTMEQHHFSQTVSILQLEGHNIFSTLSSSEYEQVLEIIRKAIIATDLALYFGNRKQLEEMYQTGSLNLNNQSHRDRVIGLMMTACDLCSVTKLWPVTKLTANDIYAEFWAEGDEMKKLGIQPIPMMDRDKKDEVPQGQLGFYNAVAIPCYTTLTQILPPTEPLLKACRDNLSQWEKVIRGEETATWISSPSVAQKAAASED
Background: Scintillation proximity formats need no separation of bound from free tracer.

Take `CCCCN(C)C(=O)c1c(NC(=O)c2nc(C3CC3)cnc2Nc2cncnc2)cnn1C` [Example 223, 6-Cyclopropyl-3-(pyrimidin-5-ylamino)-pyrazine-2-carboxylic acid [5-(butyl-methyl-carbamoyl)-1-methyl-1H-pyrazol-4-yl]-amide]: the IC50 turned out to be 18.4 nM.

With `COCC(C)NC(=O)c1ccncc1NC(=O)c1nc(C2CC2)ccc1Nc1cncnc1` (stereo not drawn) [Example 72, 6-Cyclopropyl-3-(pyrimidin-5-ylamino)-pyridine-2-carboxylic acid [4-(2-methoxy-1-methyl-ethylcarbamoyl)-pyridin-3-yl]-amide], the IC50 stood at 4.2 nM.

For the compound `COC1CCN(C(=O)c2ccncc2NC(=O)c2nc(C3CC3)ccc2Nc2cncnc2)C1` (stereo not drawn) [Example 62, 6-Cyclopropyl-3-(pyrimidin-5-ylamino)-pyridine-2-carboxylic acid [4-(3-methoxy-pyrrolidine-1-carbonyl)-pyridin-3-yl]-amide], the IC50 was found to be 93.9 nM.

As for `CNC(=O)c1c(NC(=O)c2nc(C(C)(C)O)cnc2Nc2cncnc2)cnn1C` [Example 341, 6-(1-Hydroxy-1-methyl-ethyl)-3-(pyrimidin-5-ylamino)-pyrazine-2-carboxylic acid (1-methyl-5-methylcarbamoyl-1H-pyrazol-4-yl)-amide], the half-inhibitory concentration (IC50) worked out at 28 nM.

Regarding `CNC(=O)c1nc(C2CC2)ccc1NC(=O)c1nc(C2CC2)cnc1Nc1cncnc1` [Example 158, 6-Cyclopropyl-3-(pyrimidin-5-ylamino)-pyrazine-2-carboxylic acid (6-cyclopropyl-2-methylcarbamoyl-pyridin-3-yl)-amide], the half-inhibitory concentration (IC50) was determined as 0.8 nM.

As for `CNC(=O)c1nn(CC2CC2)cc1NC(=O)c1nc(C2CC2)ccc1Nc1cncnc1` [Example 12, 6-Cyclopropyl-3-(pyrimidin-5-ylamino)-pyridine-2-carboxylic acid (1-cyclopropylmethyl-3-methylcarbamoyl-1H-pyrazol-4-yl)-amide], the half-maximal inhibitory concentration (IC50) amounted to 495 nM.

On to `Cn1cc(NC(=O)c2nc(C3CC3)ccc2Nc2cncnc2)c(C(=O)N2CCOCC2)n1` [Example 14, 6-Cyclopropyl-3-(pyrimidin-5-ylamino)-pyridine-2-carboxylic acid [1-methyl-3-(morpholine-4-carbonyl)-1H-pyrazol-4-yl]-amide], for which the 50% inhibitory concentration (IC50) was determined as 11.4 nM.

`O=C(NC1CCCC1)c1ccncc1NC(=O)c1nc(C2CC2)ccc1Nc1cncnc1` [Example 61, 6-Cyclopropyl-3-(pyrimidin-5-ylamino)-pyridine-2-carboxylic acid (4-cyclopentylcarbamoyl-pyridin-3-yl)-amide]: the IC50 amounted to 1.3 nM.

Regarding `Cn1cc(NC(=O)c2nc(C3CC3)ccc2Nc2cncnc2)c(C(=O)NC2CCC2)n1` [Example 33, 6-Cyclopropyl-3-(pyrimidin-5-ylamino)-pyridine-2-carboxylic acid (3-cyclobutylcarbamoyl-1-methyl-1H-pyrazol-4-yl)-amide], the 50% inhibitory concentration (IC50) stood at 3.1 nM.

For `CNC(=O)c1cn2cc(-c3ccccc3)nc2cc1NC(=O)c1nc(C2CC2)ccc1Nc1cncnc1` [Example 81, 7-{[6-Cyclopropyl-3-(pyrimidin-5-ylamino)-pyridine-2-carbonyl]-amino}-2-phenyl-imidazo[1,2-a]pyridine-6-carboxylic acid methylamide], the half-inhibitory concentration (IC50) was found to be 0.4 nM.

`O=C(Nc1cc(F)ccc1C(=O)N1CCC1)c1nc(C2CC2)cnc1Nc1cncnc1` [Example 302, 6-Cyclopropyl-3-(pyrimidin-5-ylamino)-pyrazine-2-carboxylic acid [2-(azetidine-1-carbonyl)-5-fluoro-phenyl]-amide]: the IC50 is 1 nM.

In the case of `Cc1ncc(NC(=O)c2nc(C3CC3)cnc2Nc2cncnc2)c(C(=O)NCC(C)(C)O)n1` [Example 281, 5-{[6-Cyclopropyl-3-(pyrimidin-5-ylamino)-pyrazine-2-carbonyl]-amino}-2-methyl-pyrimidine-4-carboxylic acid (2-hydroxy-2-methyl-propyl)-amide], the IC50 amounted to 0.6 nM.

On to `CN(C(=O)c1nn(C)cc1NC(=O)c1nc(C2CC2)ccc1Nc1cncnc1)C1CCCC1` [Example 19, 6-Cyclopropyl-3-(pyrimidin-5-ylamino)-pyridine-2-carboxylic acid [3-(cyclopentyl-methyl-carbamoyl)-1-methyl-1H-pyrazol-4-yl]-amide], for which the IC50 was determined as 8.7 nM.

`CN(C)C(=O)c1c(F)cc(F)cc1NC(=O)c1nc(C2CC2)cnc1Nc1cncnc1` [Example 300, 6-Cyclopropyl-3-(pyrimidin-5-ylamino)-pyrazine-2-carboxylic acid (2-dimethylcarbamoyl-3,5-difluoro-phenyl)-amide]: the IC50 is 16.7 nM.

Take `CNC(=O)c1c(NC(=O)c2nc(C3CCC3)ncc2Nc2cncnc2)cnn1C` [Example 193, 2-Cyclobutyl-5-(pyrimidin-5-ylamino)-pyrimidine-4-carboxylic acid (1-methyl-5-methylcarbamoyl-1H-pyrazol-4-yl)-amide]: the half-inhibitory concentration (IC50) stood at 11.7 nM.

As to `CC(C)(O)CNC(=O)c1cc(F)c(F)cc1NC(=O)c1nc(C2CC2)cnc1Nc1cncnc1` [Example 110, 6-Cyclopropyl-3-(pyrimidin-5-ylamino)-pyrazine-2-carboxylic acid [4,5-difluoro-2-(2-hydroxy-2-methyl-propylcarbamoyl)-phenyl]-amide], the half-maximal inhibitory concentration (IC50) stood at 0.6 nM.

`CNC(=O)c1c(NC(=O)c2nc(COC)ccc2Nc2cncnc2)cnn1C` [Example 189, 6-Methoxymethyl-3-(pyrimidin-5-ylamino)-pyridine-2-carboxylic acid (1-methyl-5-methylcarbamoyl-1H-pyrazol-4-yl)-amide]: the half-maximal inhibitory concentration (IC50) was 144 nM.

Regarding `CNC(=O)c1c(NC(=O)c2nc(C(C)O)cnc2Nc2cncnc2)cnn1C` (stereo not drawn) [Example 187, 6-(1-Hydroxy-ethyl)-3-(pyrimidin-5-ylamino)-pyrazine-2-carboxylic acid (1-methyl-5-methylcarbamoyl-1H-pyrazol-4-yl)-amide], the concentration for half-maximal inhibition (IC50) was 63.8 nM.

In the case of `CN(CCO)C(=O)c1c(NC(=O)c2nc(C3CC3)cnc2Nc2cncnc2)cnn1C` [Example 226, 6-Cyclopropyl-3-(pyrimidin-5-ylamino)-pyrazine-2-carboxylic acid [5-[(2-hydroxy-ethyl)-methyl-carbamoyl]-1-methyl-1H-pyrazol-4-yl]-amide], the 50% inhibitory concentration (IC50) is 54.3 nM.

Turning to `CNC(=O)c1c(NC(=O)c2nc(C3CC3)cnc2Nc2cncnc2)cnn1CC1CCOC1` (stereo not drawn) [Example 286, 6-Cyclopropyl-3-(pyrimidin-5-ylamino)-pyrazine-2-carboxylic acid [5-methylcarbamoyl-1-(tetrahydro-furan-3-ylmethyl)-1H-pyrazol-4-yl]-amide], the concentration for half-maximal inhibition (IC50) was 43.2 nM.

As for `Cn1ncc(NC(=O)c2nc(C3CC3)cnc2Nc2cncnc2)c1C(=O)N1CCCO1` [Example 335, 6-Cyclopropyl-3-(pyrimidin-5-ylamino)-pyrazine-2-carboxylic acid [5-(isoxazolidine-2-carbonyl)-1-methyl-1H-pyrazol-4-yl]-amide], the half-inhibitory concentration (IC50) was 0.8 nM.

For the compound `CNC(=O)c1c(NC(=O)c2nc(OCC(F)(F)F)cnc2Nc2cncnc2)cnn1C` [Example 339, 3-(Pyrimidin-5-ylamino)-6-(2,2,2-trifluoro-ethoxy)-pyrazine-2-carboxylic acid (1-methyl-5-methylcarbamoyl-1H-pyrazol-4-yl)-amide], the concentration for half-maximal inhibition (IC50) amounted to 49.3 nM.

`COCC(C)(C)CNC(=O)c1ccncc1NC(=O)c1nc(C2CC2)cnc1Nc1cncnc1` [Example 114, 6-Cyclopropyl-3-(pyrimidin-5-ylamino)-pyrazine-2-carboxylic acid [4-(3-methoxy-2,2-dimethyl-propylcarbamoyl)-pyridin-3-yl]-amide]: the IC50 was determined as 1.1 nM.

For `O=C(NC1COC1)c1ccncc1NC(=O)c1nc(C2CC2)cnc1Nc1cncnc1` [Example 106, 6-Cyclopropyl-3-(pyrimidin-5-ylamino)-pyrazine-2-carboxylic acid [4-(oxetan-3-ylcarbamoyl)-pyridin-3-yl]-amide], the IC50 worked out at 2.6 nM.

`CCn1ncc(NC(=O)c2nc(C3CC3)cnc2Nc2cncnc2)c1C(=O)NCC(C)C` [Example 202, 6-Cyclopropyl-3-(pyrimidin-5-ylamino)-pyrazine-2-carboxylic acid (1-ethyl-5-isobutylcarbamoyl-1H-pyrazol-4-yl)-amide]: the half-inhibitory concentration (IC50) stood at 3.8 nM.

Turning to `CN1CCC(NC(=O)c2c(NC(=O)c3nc(C4CC4)cnc3Nc3cncnc3)cnn2C)CC1` [Example 242, 6-Cyclopropyl-3-(pyrimidin-5-ylamino)-pyrazine-2-carboxylic acid [1-methyl-5-(1-methyl-piperidin-4-ylcarbamoyl)-1H-pyrazol-4-yl]-amide], the IC50 was determined as 69.3 nM.

As for `CNC(=O)c1nc(COC)ccc1NC(=O)c1nc(C2CC2)cnc1Nc1cncnc1` [Example 209, 6-Cyclopropyl-3-(pyrimidin-5-ylamino)-pyrazine-2-carboxylic acid (6-methoxymethyl-2-methylcarbamoyl-pyridin-3-yl)-amide], the half-maximal inhibitory concentration (IC50) is 3.7 nM.

`CNC(=O)c1c(NC(=O)c2nc(C3CC3)cnc2Nc2cncnc2)cnn1CC(C)C` [Example 137, 6-Cyclopropyl-3-(pyrimidin-5-ylamino)-pyrazine-2-carboxylic acid (1-isobutyl-5-methylcarbamoyl-1H-pyrazol-4-yl)-amide]: the half-maximal inhibitory concentration (IC50) was determined as 58.7 nM.

Take `CC(C)(O)CNC(=O)c1cc(OCCO)ccc1NC(=O)c1nc(C2CC2)cnc1Nc1cncnc1` [Example 215, 6-Cyclopropyl-3-(pyrimidin-5-ylamino)-pyrazine-2-carboxylic acid [4-(2-hydroxy-ethoxy)-2-(2-hydroxy-2-methyl-propylcarbamoyl)-phenyl]-amide]: the IC50 turned out to be 0.5 nM.

As to `Cn1ncc(NC(=O)c2nc(C3CC3)cnc2Nc2cncnc2)c1C(=O)N1CCCC1` [Example 156, 6-Cyclopropyl-3-(pyrimidin-5-ylamino)-pyrazine-2-carboxylic acid [1-methyl-5-(pyrrolidine-1-carbonyl)-1H-pyrazol-4-yl]-amide], the IC50 worked out at 11.2 nM.

A word on the IC50: it is the midpoint of a concentration-inhibition curve.
